EPA's ToxValDB 9.5
“And” between values parts separate entries of the source, which are not always exact repeats. Equal values may be shown once.

Tests used:
[1] = system: Rattus norvegicus; conditions: subchronic, oral
[2] = system: Rattus norvegicus; conditions: for LD50 / LC50: acute
[3] = system: Oryctolagus sp.; conditions: for LD50: acute, dermal
[4] = system: Mus musculus; conditions: for LD50: acute
[5] = subchronic, duration: 13 weeks, oral, gavage, F, B6C3F1
[6] = subchronic, duration: 13 weeks, oral, gavage, M, B6C3F1
[7] = developmental, duration: 10 days, oral, Wistar
[8] = developmental, duration: 128 days, oral, gavage, Wistar
[9] = reproduction developmental, duration: 10 days, oral, F, Wistar
[10] = reproduction developmental, duration: 27 days, oral, gavage, F, Wistar
[11] = reproduction developmental, duration: 27 days, oral, gavage, Wistar, generation: F1
[12] = reproduction developmental, duration: 86 days, oral, gavage, Wistar
[13] = reproduction developmental, duration: 128 days, oral, gavage, F, Wistar
[14] = reproduction developmental, duration: 128 days, oral, gavage, Wistar
[15] = reproduction developmental, oral, gavage, F, Sprague-Dawley
[16] = short-term, duration: 27 days, oral, gavage, Sprague-Dawley

For `Cc1cc(C)c(O)c(C)c1` [2,4,6-Trimethylphenol], the NOEL ([1]; gavage, M, Sprague-Dawley, Clinical Observation: Salivation + Histopathology: Stomach/forestomach- Squamous cell metaplasia Stomach/forestomach- Edema Stomach/…) was 10 mg/kg-day, the LD50 ([2]; oral, gavage) was over 2000 mg/kg and the NOAEL ([2]; reproduction developmental, duration: 4 weeks, oral, gavage, F, Sprague-Dawley) was at least 200 mg/kg-day. It also gave an NOAEL ([2]; reproduction developmental, duration: 4 weeks, oral, gavage, Sprague-Dawley, generation: F0) of at least 200 mg/kg-day, an NOAEL ([2]; reproduction developmental, duration: 4 weeks, oral, gavage, Sprague-Dawley, generation: F1) of at least 200 mg/kg-day and an LD50 ([3]; New Zealand) of over 2000 mg/kg.
Work on `C=CC(=C)CCC=C(C)C` [Myrcene] yielded an LD50 ([4]; oral, gavage, Swiss) of 5060 mg/kg, an LOAEL [4, 5] of 500 mg/kg-day and an NOAEL [4, 5] of 250 mg/kg-day. It also gave an LOAEL [4, 6] of 1000 mg/kg-day, an NOAEL [4, 6] of 500 mg/kg-day and an LD50 ([2]; oral, Wistar) of over 5000 mg/kg. The LD50 ([2]; oral, gavage, Wistar) was over 11400 mg/kg, the LOAEL [2, 7] was 1200 mg/kg-day and the NOAEL [2, 7] was 500 mg/kg-day. For the same compound, the NOAEL ([2]; developmental, duration: 27 days, oral, gavage, Wistar) was 250 mg/kg-day, the LOAEL [2, 8] was 500 mg/kg-day and the NOAEL [2, 8] was 250 mg/kg-day. For the same compound, the LOAEL [2, 9] was 1200 mg/kg-day, the NOAEL [2, 9] was 500 mg/kg-day and the LOAEL [2, 10] was 1000 mg/kg-day. It also gave an NOAEL [2, 10] of 500 mg/kg-day, an LOAEL [2, 11] of 500 mg/kg-day and an NOAEL [2, 11] of 250 mg/kg-day. For the same compound, the LOAEL [2, 12] was 500 mg/kg-day, the NOAEL [2, 12] was 300 mg/kg-day and the LOAEL [2, 13] was 1000 mg/kg-day. For the same compound, the NOAEL [2, 13] was 500 mg/kg-day, the LOAEL [2, 14] was 500 mg/kg-day and the NOAEL [2, 14] was 250 mg/kg-day. For the same compound, the NOAEL ([2]; reproduction developmental, oral, gavage, Wistar) was 300 mg/kg-day, the LOAEL ([2]; subchronic, duration: 13 weeks, oral, gavage, Fischer 344) was 250 mg/kg-day and the LD50 ([3]; New Zealand) was over 5000 mg/kg.
`Cc1ccc([N+](=O)[O-])cc1C` [1,2-Dimethyl-4-nitrobenzene] was tested, and the LD50 ([2]; oral, Wistar) was 2640 mg/kg and the LD50 ([3]; occlusive, New Zealand) was over 5700 mg/kg.
`CCCCCCCCc1ccc(Nc2ccc(CCCCCCCC)cc2)cc1` [4,4'-Dioctyldiphenylamine] was tested, and the NOEL ([1]; gavage, M, Sprague-Dawley, Hematology: PT increase(tendency) APTT increase) was 25 mg/kg-day, the LD50 ([2]; oral, gavage, Sprague-Dawley) was over 7940 mg/kg and the LD50 ([3]; occlusive, New Zealand) was over 7940 mg/kg.
Compound `CCCCCCCCCc1cc2ccccc2c(S(=O)(=O)[O-])c1CCCCCCCCC.CCCCCCCCCc1cc2ccccc2c(S(=O)(=O)[O-])c1CCCCCCCCC.[Ba+2]` [Naphthalenesulfonic acid, dinonyl-, barium salt] has an LC50 ([2]; Inhalation, Wistar) of over 21 µg/mL, an LD50 ([2]; oral, diet, Sprague-Dawley) of over 5000 mg/kg and an LD50 ([2]; oral, gavage, Wistar) of over 5000 mg/kg. It also gave an LD50 ([3]; New Zealand) of under 20000 mg/kg.
In the case of `O=C1OC(=O)C2CCCCC12` (centres undefined) [Hexahydrophthalic anhydride], the LC50 ([2]; Inhalation, Sprague-Dawley) is reported as over 1100 mg/m3, the LD50 ([2]; oral) is reported as 3310 mg/kg and the LD50 ([2]; oral, Sprague-Dawley) is reported as ≥ 2700 mg/kg and ≤ 2800 mg/kg. The LD50 ([3]; New Zealand) was over 2000 mg/kg.
Compound `CCCCCCC(=O)O` [Heptanoic acid] has an NOAEL ([4]; chronic, duration: 80 weeks, dermal, C3H/HeCr) of 50 mg, an LC50 ([2]; Inhalation, Sprague-Dawley) of over 4.6 µg/mL and an LD50 ([2]; oral) of 8370 mg/kg. The NOAEL ([2]; developmental, duration: 9 days, oral, gavage, Sprague-Dawley) was 1000 mg/kg-day, the NOAEL ([2]; reproduction developmental, duration: 9 days, oral, gavage, F, Sprague-Dawley) was 1000 mg/kg-day and the LOAEL [2, 15] was over 1000 mg/kg-day. The NOAEL [2, 15] was under 200 mg/kg-day, the NOAEL ([2]; reproduction developmental, oral, gavage, Sprague-Dawley, generation: F1) was ≥ 1000 mg/kg-day and ≤ 2000 mg/kg-day and the LOAEL [2, 16] was 3500 mg/kg-day. For the same compound, the NOAEL [2, 16] was 1750 mg/kg-day and the LD50 ([3]; albino) was at least 2000 mg/kg.
With `Cc1cccc([N+](=O)[O-])c1` [3-Nitrotoluene] the NOEL ([1]; diet, F, Fischer 344, Body Weight Changes: decrease + Food Consumption: decrease + Hematology: Hct decrease, Hgb decrease, RBC decrease, MCV increase, MCH …) was under 48 mg/kg-day, the NOEL ([1]; diet, M/F, Fischer 344, Body Weight Changes: decrease + Food Consumption: decrease + Hematology: Hct decrease, Hgb decrease, RBC decrease, MCV increase, MCH …) was under 60 mg/kg-day and the LD50 ([4]; oral) was 1230 mg/kg. For the same compound, the LOAEL ([4]; subchronic, duration: 13 weeks, oral, diet, B6C3F1) was ≥ 123 mg/kg-day and ≤ 133 mg/kg-day, the LD50 ([2]; dermal) was over 1160 mg/kg and the LC50 ([2]; inhalation) was over 2.42 µg/mL. For the same compound, the LC50 ([2]; inhalation, Sprague-Dawley) was over 881 mg/m3, the LD50 ([2]; oral) was 2120 mg/kg and 1070 mg/kg and 1780 mg/kg and the LD50 ([2]; oral, Sprague-Dawley) was 1070 mg/kg. The LD50 ([2]; oral, gavage, Wistar) was 2200 mg/kg and 2000 mg/kg, the LOAEL ([2]; subchronic, duration: 13 weeks, oral, diet, F, Fischer 344) was 60 mg/kg-day and the LOAEL ([2]; subchronic, duration: 13 weeks, oral, diet, M, Fischer 344) was 60 mg/kg-day. The LD50 ([3]; New Zealand) was over 20000 mg/kg.
Work on `CCCCCCCCCCCCCCCCN.F` [1-Hexadecanamine, hydrofluoride] yielded an NOAEL ([2]; reproduction developmental, duration: 10 days, oral, gavage, F, Long-Evans) of 30 mg/kg-day, an NOAEL ([2]; reproduction developmental, oral, gavage, Long-Evans, generation: F0) of 6 mg/kg-day and an NOAEL ([2]; reproduction developmental, oral, gavage, Long-Evans, generation: F1) of 30 mg/kg-day. The LOAEL ([3]; reproduction developmental, duration: 13 days, oral, gavage, F, New Zealand) was 1.2 mg/kg-day.
In the case of `C=CC(C)CCC=C(C)C` (centres undefined) [Dihydromyrcene], the LD50 ([2]; oral, Wistar) is reported as over 5000 mg/kg, the LD50 ([2]; oral, gavage, Wistar) is reported as over 5000 mg/kg and the LD50 ([3]; New Zealand) is reported as over 5000 mg/kg.
`CC(C)COP(=S)([S-])OCC(C)C.CC(C)COP(=S)([S-])OCC(C)C.[Zn+2]` showed an LD50 ([2]; oral, gavage, Wistar) of 3600 mg/kg and an LD50 ([3]; New Zealand) of over 20000 mg/kg.
